Assay [1] addresses T1, MOR-1 (Mus musculus, UniProt P42866). In words: Competition binding against 125I-IBNtxA, MOR-1 CHO membranes. The arrangement: expressed in transfected cells. Particulars: vs 125I-IBNtxA (0.1 nM).
A further assay has as its target T2, DOR-1 (Mus musculus, UniProt P32300).
T2 construct: expressed in transfected cells
Nature of the assay: Competition binding against 125I-IBNtxA, DOR-1 CHO membranes. As to conditions: vs 125I-IBNtxA (0.1 nM). Here is the method: (§1) FIGS. 7A-7C show competition assays at MOR-1, KOR-1 and DOR-1 against FMP4. Competition studies were performed with FMP4 against ^125I-IBNtxA (0.1 nM) in membranes from CHO cells stably expressing the indicated cloned mouse opioid receptors Each figure is a representative experiment that has been independently replicated at least three times. Error bars represent the SEM of triplicate samples. Error bars that cannot be seen are smaller than the size of the symbol.

For another assay, the target named is T3, KOR-1 (Mus musculus, UniProt P33534).
T3 construct: expressed in transfected cells
In words: Competition binding against 125I-IBNtxA, KOR-1 CHO membranes. As to conditions: vs 125I-IBNtxA (0.1 nM), cloned mouse receptor, ± SEM. Here is the method:
as §1

Assay [2] has as its target T1, MOR-1. In words: Screening of MOR-1 binders, single-dose inhibition of 125IBNtxA specific binding. The arrangement: expressed in transfected cells; host or cells: CHO cells. As to conditions: single dose 10 μM. The source says: Each panel is a representative experiment that has been independently replicated at least three times.
For assay [3], the target named is T1, MOR-1. Nature of the assay: [35S]-GTPγS assay in MOR-1 expressing CHO cells. Particulars: for Functional character in [35S]GTPγS assay at MOR-1: MOR-1 expressing CHO cells, compared with full agonist DAMGO 100 nM. It counts as biochemical. On the set-up: expressed in transfected cells; host or cells: CHO cells. An excerpt:
Results are pooled from 3 independent replications and are expressed as mean±SEM.
(Binding of GTPγS marks nucleotide exchange on a G protein.)

Setting [4] is: value in μM, read-out: Binding Data-Ki / affinity MOR-1 (μOR).
Where [5] appears, read: cloned mouse receptor, ± SEM, read-out: Binding Data-Ki MOR-1.

A word on the inhibition: it is the relative decrease from the control value, in per cent. Lower therefore signals a weak effect.

Entries after “also recorded” stand apart in the source; their conditions may differ. Like-named read-outs stand apart in the source and are kept apart here. A value given as a limit tells only on which side of the number the result lay.

Take `COc1cccc(OCCCCCN2CCCCC2)c1` [FMP6]: the Ki on MOR-1 [1] (setting [4]) was greater than 30 µM; on DOR-1 (value in μM), greater than 30 µM; at KOR-1 it was 6.94 ± 1.97 µM.

On MOR-1 [2], `Cc1ccccc1OCCCCCCc1c(C)n[nH]c1C` [FMP4, 3,5-dimethyl-4-[6-(o-tolyloxy)hexyl]-1H-pyrazole] yielded an inhibition at 10 µM of no less than 30%. Besides, at MOR-1 [3] (FMP4 at 30 μM), the “Antagonism of GTPγS stimulation by 100 nM DAMGO” value is on record as “antagonized the GTPγS stimulation of 100 nM DAMGO”. The figures for the “Functional character in [35S]GTPγS assay at MOR-1” value on MOR-1 [3] and on MOR-1 [3] (listed as FMP 4) were “weak partial agonism; also recorded: partial agonist” and “weak MOR-1 partial agonist”, respectively. Besides, the “Stimulation of GTPγS binding” value on MOR-1 [3] (doses 1, 10 and 30 μM, ceiling effect, p<0.0001 vs control) is “stimulates GTPγS binding”. Further, the Ki was determined as 3.22 ± 0.153 µM on MOR-1 [1] (setting [5]); 3.2 µM on MOR-1 [1] (setting [4]); 8.14 ± 1.4 µM on DOR-1 (cloned mouse receptor, ± SEM); 2.5 ± 0.523 µM on KOR-1.

In turn, `Cc1ccccc1OCCCCCN1CCCCC1` [FMP1, 1-piperidino-5-(o-tolyloxy)pentane] yielded an inhibition at 10 µM at MOR-1 [2] of no less than 30%. Moreover, the Ki was 0.841 ± 0.242 µM at MOR-1 [1] (setting [5]); less than 10 µM at MOR-1 [1] (setting [4]); 17.9 ± 7.61 µM on DOR-1 (cloned mouse receptor, ± SEM); 7.39 ± 2.38 µM at KOR-1.

With `Cc1cccc(C)c1OCCCCCN1CCN(C)CC1` [FMP21], the Ki on MOR-1 [1] (setting [4]) was greater than 30 µM; at DOR-1 (value in μM) it was greater than 30 µM; at KOR-1, 5.5 ± 4.19 µM.

`Cc1ccc(OCCCCCCc2c(C)n[nH]c2C)cc1` [FMP16, 3,5-dimethyl-4-[6-(p-tolyloxy)hexyl]-1H-pyrazole] displayed an inhibition at 10 µM at MOR-1 [2] of no less than 30%. Also, the Ki at MOR-1 [1] (setting [5]) was 1.75 ± 0.492 µM; at MOR-1 [1] (setting [4]) it was less than 10 µM; at DOR-1 (cloned mouse receptor, ± SEM) it was 9.06 ± 0.566 µM; at KOR-1, 4.92 ± 2.24 µM.

For the compound `Cc1ccccc1OCCCCCN1CCOCC1` [FMP30], the Ki was 11.3 ± 2.26 µM at MOR-1 [1] (setting [5]); 12.8 ± 0.856 µM at DOR-1 (cloned mouse receptor, ± SEM); 6.01 ± 2.16 µM at KOR-1.

The record behind these values is patent US11213518B2, “Ligands of the mu, kappa, and delta opioid receptors” (The Board of Trustees of the Leland Stanford Junior …, priority 2017, dated 2022).
